Test system: CD8+ T cells
Experiment: In vitro immunogenicity of HLA-A*02 peptides (CD8+ T-cell priming with aAPCs, multimer staining)
Type: cell-based, human
Description: In order to obtain information regarding the immunogenicity of the TUMAPs of the present invention, the inventors performed investigations using an in vitro T-cell priming assay based on repeated stimulations of CD8+ T cells with artificial antigen presenting cells (aAPCs) loaded with peptide/MHC complexes and anti-CD28 antibody.
In order to perform in vitro stimulations by artificial antigen presenting cells loaded with peptide-MHC complex (pMHC) and anti-CD28 antibody, the inventors first isolated CD8+ T cells from fresh HLA-A*02 leukapheresis products via positive selection using CD8 microbeads (Miltenyi Biotec, Bergisch-Gladbach, Germany) of healthy donors obtained from the University clinics Mannheim, Germany, after informed consent.
PBMCs and isolated CD8+ lymphocytes were incubated in T-cell medium (TCM) until use consisting of RPMI-Glutamax (Invitrogen, Karlsruhe, Germany) supplemented with 10% heat inactivated human AB serum (PAN-Biotech, Aidenbach, Germany), 100 U/ml Penicillin/100 μg/ml Streptomycin (Cambrex, Cologne, Germany), 1 mM sodium pyruvate (CC Pro, Oberdorla, Germany), 20 μg/ml Gentamycin (Cambrex). 2.5 ng/ml IL-7 (PromoCell, Heidelberg, Germany) and 10 U/ml IL-2 (Novartis Pharma, Nurnberg, Germany) were also added to the TCM at this step.
Generation of pMHC/anti-CD28 coated beads, T-cell stimulations and readout was performed in a highly defined in vitro system using four different pMHC molecules per stimulation condition and 8 different pMHC molecules per readout condition.
The purified co-stimulatory mouse IgG2a anti human CD28 Ab 9.3 (Jung et al., 1987) was chemically biotinylated using Sulfo-N-hydroxysuccinimidobiotin as recommended by the manufacturer (Perbio, Bonn, Germany). Beads used were 5.6 μm diameter streptavidin coated polystyrene particles (Bangs Laboratories, Illinois, USA).
800.000 beads/200 μl were coated in 96-well plates in the presence of 4×12.5 ng different biotin-pMHC, washed and 600 ng biotin anti-CD28 were added subsequently in a volume of 200 μl. Stimulations were initiated in 96-well plates by co-incubating 1×10^6 CD8+ T cells with 2×10^5 washed coated beads in 200 μl TCM supplemented with 5 ng/ml IL-12 (PromoCell) for 3 days at 37° C. Half of the medium was then exchanged by fresh TCM supplemented with 80 U/ml IL-2 and incubating was continued for 4 days at 37° C. This stimulation cycle was performed for a total of three times. For the pMHC multimer readout using 8 different pMHC molecules per condition, a two-dimensional combinatorial coding approach was used as previously described (Andersen et al., 2012) with minor modifications encompassing coupling to 5 different fluorochromes. Finally, multimeric analyses were performed by staining the cells with Live/dead near IR dye (Invitrogen, Karlsruhe, Germany), CD8-FITC antibody clone SK1 (BD, Heidelberg, Germany) and fluorescent pMHC multimers. For analysis, a BD LSRII SORP cytometer equipped with appropriate lasers and filters was used. Peptide specific cells were calculated as percentage of total CD8+ cells. Evaluation of multimeric analysis was done using the FlowJo software (Tree Star, Oregon, USA). In vitro priming of specific multimer+CD8+ lymphocytes was detected by comparing to negative control stimulations.

Substance	in vitro immunogenicity: donors	in vitro immunogenicity: wells
ABCA13-001 (ILFEINPKL)	++++ (>= 70% = ++++)	+ (<20% = +)
ABCA13-002 (ALDENLHQL)	+++ (50%-69% = +++)	+ (<20% = +)
ADAM8-001 (KLLTEVHAA; listed as Homo sapiens)	++++ (>= 70% = ++++)	+ (<20% = +)
AIVDKVPSV (listed as Homo sapiens) [SEQ ID No. 143]	+++ (50%-69% = +++)	+ (<20% = +)
ALLNILSEV (listed as Homo sapiens) [SEQ ID No. 8]	++++ (>= 70% = ++++)	++ (20%-49% = ++)
ALTSTLISV (listed as Homo sapiens) [SEQ ID No. 5]	++++ (>= 70% = ++++)	+ (<20% = +)
ALVDHTPYL (listed as Homo sapiens) [SEQ ID No. 136]	++++ (>= 70% = ++++)	+ (<20% = +)
ALVQDLAKA (listed as Homo sapiens) [SEQ ID No. 131]	++++ (>= 70% = ++++)	++ (20%-49% = ++)
ATP-001 (SLHFLILYV; listed as Homo sapiens)	++++ (>= 70% = ++++)	++++ (>= 70% = ++++)
BNC1-001 (VLFPNLKTV)	++++ (>= 70% = ++++)	+ (<20% = +)
BUB1B-001 (KIVDFSYSV)	++++ (>= 70% = ++++)	++ (20%-49% = ++)
CCNB2-001 (ILVDWLVQV; listed as Homo sapiens)	++++ (>= 70% = ++++)	++ (20%-49% = ++)
CDK4-001 (TLWYRAPEV; listed as Homo sapiens)	++++ (>= 70% = ++++)	++++ (>= 70% = ++++)
CERC-001 (KLSWDLIYL; listed as Homo sapiens)	++++ (>= 70% = ++++)	+++ (50%-69% = +++)
COG4-001 (SLVAVELEKV)	++++ (>= 70% = ++++)	+ (<20% = +)
COL6A3-002 (FLLDGSANV; listed as Homo sapiens)	++++ (>= 70% = ++++)	++ (20%-49% = ++)
COL6A3-003 (NLLDLDYEL; listed as Homo sapiens)	++++ (>= 70% = ++++)	+ (<20% = +)
COL6A3-007 (FLYDVVKSL; listed as Homo sapiens)	++++ (>= 70% = ++++)	+ (<20% = +)
COL6A3-010 (KLLPYIVGV; listed as Homo sapiens)	++++ (>= 70% = ++++)	++ (20%-49% = ++)
COL12A1-002 (FLVDGSWSV; listed as Homo sapiens)	++ (20%-49% = ++)	+ (<20% = +)
CSNK2A2-001 (VLSSGLTAA; listed as Homo sapiens)	+ (<20% = +)	+ (<20% = +)
DIO2-001 (ALYDSVILL; listed as Homo sapiens)	+ (<20% = +)	+ (<20% = +)
DKC-001 (ALFQRPPLI; listed as Homo sapiens)	++++ (>= 70% = ++++)	++ (20%-49% = ++)

Substance	in vitro immunogenicity: donors	in vitro immunogenicity: wells
DONSON-001 (VLYPHEPTAV; listed as Homo sapiens)	++++ (>= 70% = ++++)	+ (<20% = +)
DROSHA-001 (AVVEFLTSV)	++++ (>= 70% = ++++)	+ (<20% = +)
DUSP4-001 (FVFSFPVSV; listed as Homo sapiens)	++++ (>= 70% = ++++)	++ (20%-49% = ++)
ERO-001 (LLLEILHEI; listed as Homo sapiens)	+++ (50%-69% = +++)	+ (<20% = +)
FLFDGSANL (listed as Homo sapiens) [SEQ ID No. 13]	++ (20%-49% = ++)	+ (<20% = +)
FLIPYAIML (listed as Homo sapiens) [SEQ ID No. 2]	++++ (>= 70% = ++++)	+ (<20% = +)
FZD-001 (VLAPLFVYL; listed as Homo sapiens)	++++ (>= 70% = ++++)	+++ (50%-69% = +++)
GBP5-001 (SLLSELQHA; listed as Homo sapiens)	++ (20%-49% = ++)	+ (<20% = +)
GFPT2-001 (AIDGNNHEV)	++++ (>= 70% = ++++)	+++ (50%-69% = +++)
ILIDWLVQV (listed as Homo sapiens) [SEQ ID No. 117]	++++ (>= 70% = ++++)	++ (20%-49% = ++)
ILLTEQINL (listed as Homo sapiens) [SEQ ID No. 18]	++ (20%-49% = ++)	+ (<20% = +)
ILQDRLNQV (listed as Homo sapiens) [SEQ ID No. 152]	+++ (50%-69% = +++)	+ (<20% = +)
IVAESLQQV (listed as Homo sapiens) [SEQ ID No. 105]	+ (<20% = +)	+ (<20% = +)
IVDDITYNV (listed as Homo sapiens) [SEQ ID No. 119]	++++ (>= 70% = ++++)	++ (20%-49% = ++)
IVDRTTTVV (listed as Homo sapiens) [SEQ ID No. 12]	++++ (>= 70% = ++++)	++++ (>= 70% = ++++)
KIF26B-001 (TVAEVIQSV; listed as Homo sapiens)	+ (<20% = +)	+ (<20% = +)
KIFDEILVNA (listed as Homo sapiens) [SEQ ID No. 144]	++ (20%-49% = ++)	+ (<20% = +)
KIIGIMEEV (listed as Homo sapiens) [SEQ ID No. 95]	++++ (>= 70% = ++++)	++++ (>= 70% = ++++)
KILEDVVGV (listed as Homo sapiens) [SEQ ID No. 130]	++++ (>= 70% = ++++)	++ (20%-49% = ++)
KIQEILTQV (listed as Homo sapiens) [SEQ ID No. 120]	++++ (>= 70% = ++++)	+ (<20% = +)
KIQEMQHFL (listed as Homo sapiens) [SEQ ID No. 116]	++++ (>= 70% = ++++)	+ (<20% = +)
KLDETNNTL (listed as Homo sapiens) [SEQ ID No. 158]	++ (20%-49% = ++)	+ (<20% = +)

Source: patent US10526389B2, “Peptides and combinations of peptides for use in immunotherapy against lung cancer, including NSCLC and other cancers” (Immatics Biotechnologies GmbH, priority 2015, dated 2020)
